This is an account of results in US5565568A, “2-acylaminopropanamides as tachykinin receptor antagonists” (Eli Lilly and Company, priority 1995, dated 1996).

Broadly, the IC50 is the concentration that gives 50% inhibition. Higher therefore signals weaker potency in that assay.

Where a name gives a salt, the structure may show the parent alone.

The target in one test is T1, NK-1 receptor (Homo sapiens, UniProt P25103).
T1 construct: In this assay an aliquot of IM9 cells; endogenous in cells; host or cells: IM9 cells
The test is described as follows: NK-1 Receptor Binding Assay (125I-labeled substance P, IM9 cells). To be noted: inhibition of 125I-substance P binding to IM9 cells, 45 minutes at 4° C.; certain values may be average of more than one experiment. The protocol:
(§1) The biological activity of the compounds of the present invention is evaluated employing an initial screening assay which rapidly and accurately measured the binding of the tested compound to known NK-1 and NK-2 receptor sites. Assays useful for evaluating tachykinin receptor antagonists are well known in the art. See, e.g., J. Jukic, et al., Life Sciences, 49:1463-1469 (1991); N. Kucharczyk, et al., Journal of Medicinal Chemistry, 36:1654-1661 (1993); N. Rouissi, et al., Biochemical and Biophysical Research Communications, 176:894-901 (1991).
NK-1 Receptor Binding Assay
Radioreceptor binding assays are performed using a derivative of a previously published protocol. D. G. Payan, et al., Journal of Immunology, 133:3260-3265 (1984). In this assay an aliquot of IM9 cells (1×10^6 cells/tube in […] medium supplemented with 10% fetal calf serum) is incubated with 20 pM ^125 I-labeled substance P in the presence of increasing competitor concentrations for 45 minutes at 4° C.
The IM9 cell line is a well-characterized cell line which is readily available to the public. See, e.g., Annals of the New York Academy of Science, 190: 221-234 (1972); Nature (London), 251:443-444 (1974); Proceedings of the National Academy of Sciences (USA), 71:84-88 (1974). These cells are routinely cultured in RPMI 1640 supplemented with 50 μg/ml gentamicin sulfate and 10% fetal calf serum.
The reaction is terminated by filtration through a glass fiber filter harvesting system using filters previously soaked for 20 minutes in 0.1% polyethylenimine. Specific binding of labeled substance P is determined in the presence of 20 nM unlabeled ligand.
(§2) Column 1 provides the example number of the test antagonist compound as detailed supra. The next columns define the concentration of the test compound (in nanomolar quantities) which inhibits fifty percent of the binding of the appropriate neurokinin, as defined in the column heading. Certain values may represent the average of more than one experiment.

A further test deals with T2, human NK-2 receptor (Homo sapiens, UniProt P21452).
T2 construct: expressed in transfected cells; host or cells: CHO-hNK-2R cells (membranes)
T2 sequence (P21452 1-398): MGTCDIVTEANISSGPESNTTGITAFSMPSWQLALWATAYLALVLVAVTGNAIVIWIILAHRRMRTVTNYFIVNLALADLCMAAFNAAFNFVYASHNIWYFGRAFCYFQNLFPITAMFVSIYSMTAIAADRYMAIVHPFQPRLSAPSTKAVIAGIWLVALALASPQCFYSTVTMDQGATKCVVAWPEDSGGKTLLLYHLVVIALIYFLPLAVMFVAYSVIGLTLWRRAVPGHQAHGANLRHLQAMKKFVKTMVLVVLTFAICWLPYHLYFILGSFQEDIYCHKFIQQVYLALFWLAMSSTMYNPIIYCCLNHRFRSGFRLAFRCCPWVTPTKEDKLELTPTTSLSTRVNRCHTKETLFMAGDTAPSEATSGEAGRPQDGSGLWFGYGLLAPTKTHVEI
Nature of the test: NK-2 Receptor Binding Assay ([125I]iodohistidyl-neurokinin A, CHO-hNK-2R membranes). To be noted: inhibition of [125I]iodohistidyl-neurokinin A binding, 1 hour at room temperature, certain values may be average of more than one experiment. The procedure: as §1
NK-2 Receptor Binding Assay
The CHO-hNK-2R cells, a CHO-derived cell line transformed with the human NK-2 receptor, expressing about 400,000 such receptors per cell, are grown in 75 cm^2 flasks or roller bottles in minimal essential medium (alpha modification) with 10% fetal bovine serum. The gene sequence of the human NK-2 receptor is given in N. P. Gerard, et al., Journal of Biological Chemistry, 265:20455-20462 (1990).
For preparation of membranes, 30 confluent roller bottle cultures are dissociated by washing each roller bottle with 10 ml of Dulbecco's phosphate buffered saline (PBS) without calcium and magnesium, followed by addition of 10 ml of enzyme-free cell dissociation solution (PBS-based, from Specialty Media, Inc.). After an additional 15 minutes, the dissociated cells are pooled and centrifuged at 1,000 RPM for 10 minutes in a clinical centrifuge. Membranes are prepared by homogenization of the cell pellets in 300 ml 50 mM Tris buffer, pH 7.4 with a Tekmar® homogenizer for 10-15 seconds, followed by centrifugation at 12,000 RPM (20,000 x g) for 30 minutes using a Beckman JA-14® rotor. The pellets are washed once using the above procedure. and the final pellets are resuspended in 100-120 ml 50 mM Tris buffer, pH 7.4, and 4 ml aliquots stored frozen at -70° C. The protein concentration of this preparation is 2 mg/ml.
For the receptor binding assay, one 4-ml aliquot of the CHO-hNK-2R membrane preparation is suspended in 40 ml of assay buffer containing 50 mM Tris, pH 7.4, 3 mM manganese chloride, 0.02% bovine serum albumin (BSA) and 4 μg/ml chymostatin. A 200 μl volume of the homogenate (40 μg protein) is used per sample. The radioactive ligand is [^125 I]iodohistidyl-neurokinin A (New England Nuclear, NEX-252), 2200 Ci/mmol. The ligand is prepared in assay buffer at 20 nCi per 100 μl; the final concentration in the assay is 20 pM. Non-specific binding is determined using 1 μM eledoisin. Ten concentrations of eledoisin from 0.1 to 1000 nM are used for a standard concentration-response curve.
All samples and standards are added to the incubation in 10 μl dimethylsulfoxide (DMSO) for screening (single dose) or in 5 μl DMSO for IC50 determinations. The order of additions for incubation is 190 or 195 μl assay buffer, 200 μl homogenate, 10 or 5 μl sample in DMSO, 100 μl radioactive ligand. The samples are incubated 1 hour at room temperature and then filtered on a cell harvester through filters which had been presoaked for two hours in 50 mM Tris buffer, pH 7.7, containing 0.5% BSA. The filter is washed 3 times with approximately 3 ml of cold 50 mM Tris buffer, pH 7.7. The filter circles are then punched into 12×75 mm polystyrene tubes and counted in a gamma counter.
as §2

The next test relates to human erythrocytes. Particulars: Arzneim-Forsch, 32(I):684-685 (1982); in vitro; cited from earlier work.
The test system of test [1] is glucose transport in human erythrocytes. Particulars: Arzneim-Forsch, 32(I):684-685 (1982); in vitro; cited from earlier work.
A further test deals with rat alpha-fetoprotein. Particulars: Journal of Steroid Biochemistry, 16:503-507 (1982); in vitro; cited from earlier work.
A further test concerns benzodiazepine receptor. To be noted: Biochemical Pharmacology, 30:3016-3019 (1981); cited from earlier work.

T1 sequence (P25103 whole entry): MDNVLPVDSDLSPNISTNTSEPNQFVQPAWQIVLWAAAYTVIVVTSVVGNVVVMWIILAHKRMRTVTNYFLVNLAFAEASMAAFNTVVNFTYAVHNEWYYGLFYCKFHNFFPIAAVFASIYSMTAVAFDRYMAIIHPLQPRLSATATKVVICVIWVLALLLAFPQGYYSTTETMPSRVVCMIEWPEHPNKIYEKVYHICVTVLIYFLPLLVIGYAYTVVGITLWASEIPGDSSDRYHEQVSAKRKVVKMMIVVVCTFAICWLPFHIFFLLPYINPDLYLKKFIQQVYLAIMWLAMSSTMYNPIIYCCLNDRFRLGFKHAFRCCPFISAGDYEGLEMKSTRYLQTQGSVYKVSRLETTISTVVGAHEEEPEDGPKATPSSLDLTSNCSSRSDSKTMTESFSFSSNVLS

In the case of `O=C(CN1CCN(Cc2ccccc2)CC1)NC(Cc1c[nH]c2ccccc12)C(=O)NCc1ccccc1Cl` (centres unmarked) [Example 13, N-(2-chlorobenzyl)-3-(1H-indol-3-yl)-2-[(4-benzylpiperazin-1-yl)acetyl]amino]propanamide dihydrochloride salt], the IC50 is 34 nM on NK-1 receptor and 240 nM at human NK-2 receptor.
For `CN(Cc1ccccc1)C(=O)C(Cc1c[nH]c2ccccc12)NC(=O)CN1CCN(c2ccccc2)CC1` (centres unmarked) [Example 15], on NK-1 receptor, the IC50 stood at 180 nM.
For `O=C(CN1CCN(c2ccccc2)CC1)NC(Cc1c[nH]c2ccccc12)C(=O)NCc1ccccc1Cl` (centres unmarked) [Example 9], the IC50 on NK-1 receptor was determined as 30 nM; at human NK-2 receptor, 240 nM.
As for `O=C1CN(CC(=O)NC(Cc2c[nH]c3ccccc23)C(=O)NCc2ccccc2Cl)C(=O)CN1` (centres unmarked) [Example 2], the results for the IC50 on NK-1 receptor and at human NK-2 receptor were 230 nM and 1500 nM, respectively.
The compound `O=C(CN1CC(=O)N(Cc2ccccc2)CC1=O)NC(Cc1c[nH]c2ccccc12)C(=O)NCc1ccccc1` (centres unmarked) [Example 3] had an IC50 on human NK-2 receptor of 1500 nM.
On the same count and under the same terms, for `O=C(CN1CC(=O)N(Cc2ccccc2)CC1=O)NC(Cc1c[nH]c2ccccc12)C(=O)Nc1ccccc1` (centres unmarked) [Example 4] the value was 2100 nM.
Take `CC(N)(C(=O)OCc1ccccc1)c1c[nH]c2ccccc12` (centres unmarked) [benzyl (2-(3-indolyl)-2-aminopropionate]: the antisickling activity entry with human erythrocytes is given as “antisickling agent”. Moreover, in test [1], the “inhibition of glucose transport in human erythrocytes” value was “inhibitor of glucose transport”.
In the case of `COc1ccccc1CNC(=O)C(Cc1c[nH]c2ccccc12)NC(=O)CN1CCN(c2ccccc2)CC1` (centres unmarked) [Example 14], the figures for the IC50 on NK-1 receptor and at human NK-2 receptor were 67 nM and 650 nM, respectively.
With `O=C(CN1CC(=O)N(Cc2ccccc2)CC1=O)NC(Cc1c[nH]c2ccccc12)C(=O)NCCc1ccccc1` (centres unmarked) [Example 5], the IC50 at human NK-2 receptor is 740 nM.
As to `O=C(CN1CCN(c2ccccc2)CC1)NC(Cc1c[nH]c2ccccc12)C(=O)NCc1ccc(Cl)cc1` (centres unmarked) [Example 17], the IC50 on NK-1 receptor and at human NK-2 receptor was 210 nM in each case.
For `CN1CCN(CC(=O)NC(Cc2c[nH]c3ccccc23)C(=O)NCc2ccccc2Cl)CC1` (centres unmarked) [Example 8], the IC50 on NK-1 receptor is 78 nM; at human NK-2 receptor it was 3400 nM.
For `O=C(CN1CC(=O)N(Cc2ccccc2)CC1=O)NC(Cc1c[nH]c2ccccc12)C(=O)NCc1ccccc1Cl` (centres unmarked) [Example 6], the IC50 worked out at 41 nM at NK-1 receptor and 82 nM on human NK-2 receptor.
With `NC(Cc1c[nH]c2ccccc12)C(=O)OCc1ccccc1` (centres unmarked) [benzyl 3-(3-indolyl)-2-aminopropionate], in the test on rat alpha-fetoprotein, the “inhibition of estrogen binding to rat alpha-fetoprotein” value is recorded as “weak inhibition”. For the same compound, the “Inhibition of benzodiazepine receptor binding in vitro” value in the test with benzodiazepine receptor is given as “Inhibition”.
Turning to `O=C(CN1CCCCC1)NC(Cc1c[nH]c2ccccc12)C(=O)NCc1ccccc1Cl` (centres unmarked) [Example 7], the IC50 was found to be 730 nM at NK-1 receptor and 2200 nM on human NK-2 receptor.
Regarding `O=C(CN1CCC(Cc2ccccc2)CC1)NC(Cc1c[nH]c2ccccc12)C(=O)NCc1ccccc1Cl` (centres unmarked) [Example 1, N-(2-chlorobenzyl)-3-(1H-indol-3-yl)-2-[(4-benzylpiperidin-1-yl)acetyl]amino]propanamide hydrochloride salt], the figures for the IC50 on NK-1 receptor and at human NK-2 receptor were 290 nM and 330 nM, respectively.
`O=C(CN1CCN(c2ccccc2)CC1)NC(Cc1c[nH]c2ccccc12)C(=O)NCc1ccccc1` (centres unmarked) [Example 16]: the IC50 at NK-1 receptor stood at 140 nM; at human NK-2 receptor, 430 nM.
For `O=C(CN1CCC(c2ccccc2)CC1)NC(Cc1c[nH]c2ccccc12)C(=O)NCc1ccccc1Cl` (centres unmarked) [Example 10], in that order: 140 nM and 570 nM.
For the compound `CN1CC(=O)N(CC(=O)NC(Cc2c[nH]c3ccccc23)C(=O)NCc2ccccc2Cl)CC1=O` (centres unmarked) [Example 18], the IC50 at NK-1 receptor worked out at 95 nM; at human NK-2 receptor, 3100 nM.
